Assay results published in US20230416261A1, “ETHANEDIAMINE-HETEROCYCLE DERIVATIVES AS INHIBITORS OF PROTEIN ARGININE METHYLTRANSFERASES” (Board of Regents, The University of Texas System, priority 2021, published 2023).

Tests used:
PRMT1 [1] = target: T1, PRMT1 (Homo sapiens, UniProt Q99873); assay: PRMT1 RKO Cellular Target Engagement Assay (In-Cell Western, asymmetric di-methyl arginine); type: cell-based; conditions: RKO cells, 48 hr compound incubation; read-out: RKO IC50 (PRMT-1 Target Engagement)
T1 sequence (Q99873 whole entry): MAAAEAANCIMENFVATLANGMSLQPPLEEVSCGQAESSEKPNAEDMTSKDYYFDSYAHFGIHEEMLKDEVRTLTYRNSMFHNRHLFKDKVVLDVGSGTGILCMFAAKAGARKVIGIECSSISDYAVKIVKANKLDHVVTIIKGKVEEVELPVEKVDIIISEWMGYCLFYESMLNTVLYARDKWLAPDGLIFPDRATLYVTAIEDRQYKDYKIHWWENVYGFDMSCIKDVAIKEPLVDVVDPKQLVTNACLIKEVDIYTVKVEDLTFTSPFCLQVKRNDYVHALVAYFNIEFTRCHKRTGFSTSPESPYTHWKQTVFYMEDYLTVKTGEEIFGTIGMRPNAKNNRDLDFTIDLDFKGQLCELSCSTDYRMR
Experimental: RKO cells were routinely maintained in EMEM media (ATCC, Catalog #30-2003) supplemented with 10% fetal bovine serum (Sigma, Catalog #F2442) using a humidified incubator (37° C., 5% CO2, and ambient O2).
In preparation for the In-Cell Western assay, cells were harvested and resuspended in EMEM media supplemented with 10% fetal bovine serum. Cells were seeded onto a 384 well, black, clear bottom, Poly-D-Lysine coated tissue culture plate (Greiner, Catalog #781946) at a density of 1,000 cells/well in a volume of 40 μL. The culture plate was incubated for 24 hr at 37° C. with 5% CO2 and ambient O2. Stock solutions of the test compounds were prepared in 100% DMSO (Sigma, Catalog #D2650) and serially diluted 1:3 using 100% DMSO. Compounds were additionally diluted 1:40 in culture medium, and 10 μL/well was transferred to the tissue culture plate. Following the compound addition the microplate was incubated at 37° C. for 48 hr.
The media was removed, the plate was washed with 1× PBS (Fisher Bioreagents, Catalog #BP399-20), and cells were fixed for 10 min using 30 μL/well of 4% paraformaldehyde (Electron Microscopy Sciences, Catalog #15710). The paraformaldehyde was removed, the plate was again washed with 1× PBS, and cells were permeabilized for 15 min using 30 μL/well of 1× PBS containing 0.5% Triton-X 100 (Sigma, Catalog #1001748095). The permeabilization buffer was removed, the plate was washed with 1× PBST (Boston BioProducts, Catalog #IBB-171X), and 50 μL/well of blocking buffer (LI-COR, Catalog #927-40000) was added followed by a 1 hour incubation at room temperature. The blocking buffer was removed, and 20 μL/well of anti-asymmetric di-methyl arginine antibody (Cell Signaling, Catalog #13522S) diluted 1:1000 in LI-COR blocking buffer was added to the plate and incubated overnight, in the dark at 4° C.
The primary antibody was then removed, and the plate was washed three times with 1× PBST. 20 μL/well of CellTag (LI-COR, Catalog #926-41090) and IRDye 800CW goat anti-rabbit IgG antibody (LI-COR, Catalog #926-32211), each diluted 1:500 in LI-COR blocking buffer supplemented with 0.1% Tween-20 (Thermo Scientific, Catalog #85114), were added to the plate. The plate was then incubated in the dark, at room temperature for 1 hour followed by three washes with 1× PBST and one wash with H2O. The IRDye secondary antibody signal (800 channel) and the CellTag signal (700 channel) were measured using a Licor Odyssey Imager, and the 800 channel signal was then normalized to the 700 channel signal. IC50 values were calculated using a four-parameter logistic curve fit using Genedata Screener software.

DOHH2 cells = assay: DOHH2 Long Term Phenotypic Assay (7 days, Cell Titer-Glo viability); type: cell-based; conditions: Cell Titer-Glo 2.0
Experimental: DOHH2 cells were kindly provided by Michael Green (MDACC). The cells were routinely maintained in RPMI-1640 Medium (ATCC, Catalog #30-2001) supplemented with 10% fetal bovine serum (Sigma, Catalog #F2442), 100 units/mL penicillin and 100 μg/mL streptomycin (Gibco, Catalog #15140-122) in a humidified incubator (37° C., 5% CO2). Cells were seeded onto a white, CulturPlate-384 (Perkin Elmer, catalog #6007680) at a density of 250 cells per well in a volume of 50 μL. Stock solutions of the test compounds were prepared in 100% DMSO (Sigma, Catalog #D2650) and serially diluted 1:3 using 100% DMSO. Compounds were additionally diluted 1:33 in culture medium, and 10 μL/well was transferred to the tissue culture plate. Following the compound addition, the plate was incubated at 37° C. and 5% CO2 for 7 days. Cells were then mixed and a 30 μL volume was removed. Viability was assessed by a 30 μL addition of Cell Titer-Glo 2.0 (Promega, catalog #G9243). The plate was then shaken on an orbital shaker at 300 RPM for 10 minutes at room temperature, in the dark. Luminescence was measured using a PerkinElmer Envision™ plate reader. IC50 values were calculated using a four-parameter logistic curve fit using Genedata Screener software.

PRMT1 [2] = target: T1, PRMT1; assay: PRMT1 Enzymatic Assay (LANCE TR-FRET, methylation of histone H4 at Arg3); type: biochemical; parameters: purchased SignalChem P365-380G; conditions: PRMT1 1.5 nM, SAM 1 μM, biotinylated histone H4 (1-21) 25 nM; read-out: PRMT-1 IC50
Experimental: In order to measure PRMT1 enzymatic activity the LANCE TR-FRET assay from PerkinElmer was used to follow the methylation of histone H4 at Arg3 using S-adenosyl-L-methionine (SAM) as the methyl group donor.
This enzymatic assay was performed in a 384 well, white, low volume plate (PerkinElmer, Catalog 6008289) with assay buffer consisting of 50 mM Hepes (pH 8) (Teknova, Catalog #H1090), 1 mM TCEP (Sigma, Catalog #C4706), and 0.003% Tween-20 (Thermo, Catalog #85114). Stock solutions of the test compounds were prepared in 100% DMSO (Sigma, Catalog #D2650) and serially diluted 1:3 using 100% DMSO. Compounds were additionally diluted 1:40 in assay buffer, and 2 uL/well were transferred to the assay plate. 4 uL/well (final concentration 1.5 nM) of PRMT1 protein (SignalChem, Catalog #P365-380G) diluted in assay buffer was added to the assay plate followed by a 15 min preincubation at room temperature. 4 uL/well of SAM (Sigma, Catalog #A7007) and biotinylated histone H4 (1-21) (AnaSpec, Catalog #62555) (final concentrations 1 μM and 25 nM, respectively) diluted in assay buffer were then added to the assay plate followed by a 1 hour reaction time. Final concentrations of PRMT1, SAM, and histone H4 (1-21) refer to a […].
Detection of methylated histone H4 (H4R^3me) was achieved by combining LANCE Ultra Europium-anti-H4R^3me antibody (PerkinElmer, Catalog #TRF04-14), LANCE Ultra ULight-anti-streptavidin antibody (PerkinElmer, Catalog #TRF0102), and sinefungin (Sigma, Catalog #S8559) (final concentrations 2 nM, 50 nM, and 100 μM respectively) in 1× LANCE detection buffer (PerkinElmer, Catalog #CR97-100) and adding L/well of the detection solution to the assay plate. Detection reagents were allowed to react for 1 hour at room temperature. Final concentrations in the detection solution refer to a L volume. The europium fluorescence signal and the ULight TR-FRET signal were measured using a BioTek Synergy Neo plate reader: excitation at 330 nm, emission at 620 nm and 665 nm respectively, and the ratio of the two signals (665 nm/620 nm) was used for curve fitting. IC50 values were calculated using a four-parameter logistic curve fit using Genedata Screener software.

Row | Compound | IC50 (PRMT1 [1]) | IC50 (PRMT1 [2]) | IC50 (DOHH2 cells; Homo sapiens, DOHH-2, 168 h) | IC50 (DOHH2 cells)
1 | CNCCN(C)Cc1nn2c(c1C1CCC(COC)(COC)CC1)CN(C(=O)C(C)(C)OC)CC2 [Example 69, 1-(3-(4,4-bis(methoxy-methyl)cyclohexyl)-2-((methyl(2-(methylamino)-ethyl)amino)methyl)-6,7-dihydropyrazolo[1,5-a]-pyrazin-5(4H)-yl)-2-methoxy-2-methylpropan-1-one] | 430 nM | 320 nM | 474 nM | –
2 | CNCCN(C)Cc1nn2c(c1C1CCC(COC)(COC)CC1)CN(C(=O)C(C)(C)O)CC2 [Example 71, 1-(3-(4,4-bis(methoxy-methyl)cyclohexyl)-2-((methyl(2-(methylamino)-ethyl)amino)methyl)-6,7-dihydropyrazolo[1,5-a]-pyrazin-5(4H)-yl)-2-hydroxy-2-methylpropan-1-one] | 3480 nM | 266 nM | 962 nM | –
3 | CNCCN(C)Cc1nn2c(c1C1CCC(COC)(COC)CC1)CN(C(=O)C1CCOC1(C)C)CC2 (stereo not drawn) [Example 73, (3-(4,4-bis(methoxymethyl)-cyclohexyl)-2-((methyl(2-(methylamino)ethyl)amino)-methyl)-6,7-dihydropyrazolo-[1,5-a]pyrazin-5(4H)-yl)(2,2-dimethyltetrahydrofuran-3-yl)methanone] | 470 nM | 118 nM | 575 nM | –
4 | CNCCN(C)Cc1nn2c(c1C1CCC(COC)(COC)CC1)CN(C(=O)C1CC(C)(O)C1)CC2 (stereo not drawn) [Example 75, (3-(4,4-bis(methoxymethyl)-cyclohexyl)-2-((methyl(2-(methylamino)ethyl)amino)-methyl)-6,7-dihydropyrazolo-[1,5-a]pyrazin-5(4H)-yl)(3-hydroxy-3-methylcyclobutyl)methanone] | 5650 nM | 70 nM | 1440 nM | –
5 | CNCCN(C)Cc1nn2c(c1C1CCC(COC)(COC)CC1)CN(C(=O)C1CCC(C)(C)O1)CC2 (stereo not drawn) [Example 79, (3-(4,4-bis(methoxymethyl)-cyclohexyl)-2-((methyl(2-(methylamino)ethyl)amino)-methyl)-6,7-dihydropyrazolo-[1,5-a]pyrazin-5(4H)-yl)(5,5-dimethyltetrahydrofuran-2-yl)methanone] | 688 nM | 217 nM | 303 nM | –
6 | CNCCN(C)Cc1nn2c(c1C1CCC(COC)(COC)CC1)CN(C(=O)C1CCC1(F)F)CC2 (stereo not drawn) [Example 81, (3-(4,4-bis(methoxymethyl)-cyclohexyl)-2-((methyl(2-(methylamino)ethyl)amino)-methyl)-6,7-dihydropyrazolo-[1,5-a]pyrazin-5(4H)-yl)(2,2-difluorocyclobutyl)-methanone] | 367 nM | 133 nM | 296 nM | –

Continued by falling IC50 (PRMT1 [1]), values first:

Row | IC50 (PRMT1 [1]) | IC50 (PRMT1 [2]) | Compound | IC50 (DOHH2 cells; Homo sapiens, DOHH-2, 168 h) | IC50 (DOHH2 cells)
7 | 363 nM | 86 nM | CNCCN(C)Cc1nn2c(c1C1CCC(COC)(COC)CC1)CN(C(=O)C1(C)CCOC1)CC2 (stereo not drawn) [Example 76, (3-(4,4-bis(methoxymethyl)-cyclohexyl)-2-((methyl(2-(methylamino)ethyl)amino)-methyl)-6,7-dihydropyrazolo-[1,5-a]pyrazin-5(4H)-yl)(3-methyltetrahydrofuran-3-yl)-methanone] | 94 nM | –
8 | 315 nM | 112 nM | CNCCN(C)Cc1nn2c(c1C1CCC(COC)(COC)CC1)CN(C(=O)C(C)COC)CC2 (stereo not drawn) [Example 72, 1-(3-(4,4-bis(methoxy-methyl)cyclohexyl)-2-((methyl(2-(methylamino)-ethyl)amino)methyl)-6,7-dihydropyrazolo[1,5-a]-pyrazin-5(4H)-yl)-3-methoxy-2-methylpropan-1-one] | 310 nM | –
9 | 260 nM | 44 nM | COCC1(COC)CCC(c2c(CN(C)CCN)nn3c2CN(C(=O)C(C)(C)C(F)(F)F)CC3)CC1 [Example 70, 1-(2-(((2-aminoethyl)-(methyl)amino)methyl)-3-(4,4-bis(methoxymethyl)-cyclohexyl)-6,7-dihydro-pyrazolo[1,5-a]pyrazin-5(4H)-yl)-3,3,3-trifluoro-2,2-dimethylpropan-1-one] | 195 nM | –
10 | 254 nM | 84 nM | CNCCN(C)Cc1nn2c(c1C1CCC(COC)(COC)CC1)CN(C(=O)C1CC(C)(C)C1)CC2 [Example 77, (3-(4,4-bis(methoxymethyl)-cyclohexyl)-2-((methyl(2-(methylamino)ethyl)amino)-methyl)-6,7-dihydropyrazolo-[1,5-a]pyrazin-5(4H)-yl)(3,3-dimethylcyclobutyl)-methanone] | – | 202 nM
11 | 192 nM | 68 nM | CNCCN(C)Cc1nn2c(c1C1CCC(COC)(COC)CC1)CN(C(=O)C(C)(C)C1CCC1)CC2 [Example 78, 1-(3-(4,4-bis(methoxy-methyl)cyclohexyl)-2-((methyl(2-(methylamino)-ethyl)amino)methyl)-6,7-dihydropyrazolo[1,5-a]-pyrazin-5(4H)-yl)-2-cyclobutyl-2-methylpropan-1-one] | 154 nM | –
